Test results published in patent US20240018153A1, “BENZENESULFONAMIDE DERIVATIVES AND USES THEREOF” (2692372 ONTARIO, INC., priority 2020, published 2024).

Experiments:
Assay type in all cases: cell-based
EGFR [1] = target: T1, EGFR (Homo sapiens (Human), UniProt P00533); assay: A549 cell lysis and immunoassay, phospho-EGFR (Y1068) inhibition; set-up: key: X: EGFR bound and autophosphoration of EGFR inhibited in cells; details: A549 cells
Experimental: (§1) A549 cells (ATCC) were cultured in Dulbecco's Modified Eagle's Medium (DMEM) (Wisent) supplemented with 10% FBS and 1% penicillin/streptomycin. Cells were seeded in 6-well plates at 530,000 cells/well and incubated at 37° C., 5% CO2 for 16 hours. Cells were starved in DMEM containing 1% FBS for 4 hours before they were treated with the indicated concentrations of compound or DMSO alone and incubated at 37° C., 5% CO2 for 24 hours. Prior to cell harvest and lysis, 50 ng/ml human epidermal growth factor (hEGF) (Sigma) was added to the cells and incubated at 37° C., 5% CO2 for 10 minutes. Conditioned media was discarded, and adherent cells were washed with PBS before they were scraped on ice. Cell suspensions were centrifugated at 2,000 RPM for 5 minutes at 4° C. and supernatants were discarded. Cell pellets were resuspended with 1× RIPA buffer (Millipore) and incubated on ice for 15 minutes. Protein lysates were extracted by centrifugating at 20,000 RPM for 20 minutes at 4° C. Proteins were separated and total EGFR protein levels were quantified by Simple Western Immunoassay (ProteinSimple) using the Protein Normalization Assay Module for Jess according to the manufacturer's protocol, using a protein concentration of 0.125 μg/μl and an antibody targeting EGFR (clone #EP38Y, Abcam) diluted to 1:400. Phosphorylated EGFR protein levels were quantified with the same assay using a protein concentration of 1 μg/μl and an antibody targeting pEGFR (Y1068) (Cell Signalling) diluted to 1:25. EGFR and phosphorylated EGFR levels were normalized to the Jess Protein Normalization Reagent loading control and subsequently to the DMSO control.

EGFR [2] = target: T1, EGFR; assay: A549 cell lysis and immunoassay, total EGFR degradation; set-up: key: Y: EGFR bound in cells and EGFR degradation occurred; details: A549 cells
Experimental: as §1

BTK = BTK (Homo sapiens (Human), UniProt Q06187); assay: Ramos RA1 cell lysis and immunoassay, total BTK degradation; set-up: key to % BTK degradation (RAMOS, 24 h): Y: BTK bound in cells and BTK degradation occurred; concentration or dose not given beside the values; key to % BTK degradation (RAMOS, 10 uM, 24 h): Y: EGFR bound in cells and EGFR degradation occurred; details: RAMOS cells
Experimental: Ramos RA 1 cells (ATCC) were cultured in RPMI-1640 media (Wisent) supplemented with 10% heat-inactivated FBS and 1% penicillin/streptomycin. Cells were seeded in 6-well plates at 1.71×10^6 cells/well and incubated at 37° C., 5% CO2 for 16 hours. Cells were treated with compound at the indicated concentrations or DMSO alone and incubated at 37° C., 5% CO2 for 24 hours. Cell suspensions were centrifugated at 1,400-1,600 RPM for 5 minutes at room temperature and supernatants were discarded. Cell pellets were resuspended with 1× RIPA buffer (Millipore) and incubated on ice for 15 minutes. Protein lysates were extracted by centrifugating at 20,000 RPM for 20 minutes at 4° C. Proteins were separated and total BTK protein levels were quantified by Simple Western Immunoassay (ProteinSimple) using the 12-230 kDa Jess Separation Module according to the manufacturer's protocol, using a protein concentration of 0.25 μg/μl and antibodies targeting BTK (clone #D3H5, Cell Signalling) and β-Actin (clone #AC-15, Santa Cruz) diluted to 1:400 and 1:10, respectively, where the latter was used as a loading control. An equal ratio of rabbit and mouse HRP-conjugated secondary antibodies was used for detection. BTK protein levels were quantified relative to S-Actin loading levels and subsequently normalized to the DMSO control. Phosphorylated BTK levels were quantified using the Protein Normalization Assay Module for Jess (ProteinSimple) according to the manufacturer's protocol, using a protein concentration of 1.5 μg/μl and an antibody targeting pBTK (Y223) (Cell Signalling) diluted to 1:50. Phosphorylated BTK levels were quantified relative to the Protein Normalization Reagent and subsequently normalized to the DMSO control.

[3] = compound concentration 10, 24 h

Sequence of BTK (Q06187 whole entry): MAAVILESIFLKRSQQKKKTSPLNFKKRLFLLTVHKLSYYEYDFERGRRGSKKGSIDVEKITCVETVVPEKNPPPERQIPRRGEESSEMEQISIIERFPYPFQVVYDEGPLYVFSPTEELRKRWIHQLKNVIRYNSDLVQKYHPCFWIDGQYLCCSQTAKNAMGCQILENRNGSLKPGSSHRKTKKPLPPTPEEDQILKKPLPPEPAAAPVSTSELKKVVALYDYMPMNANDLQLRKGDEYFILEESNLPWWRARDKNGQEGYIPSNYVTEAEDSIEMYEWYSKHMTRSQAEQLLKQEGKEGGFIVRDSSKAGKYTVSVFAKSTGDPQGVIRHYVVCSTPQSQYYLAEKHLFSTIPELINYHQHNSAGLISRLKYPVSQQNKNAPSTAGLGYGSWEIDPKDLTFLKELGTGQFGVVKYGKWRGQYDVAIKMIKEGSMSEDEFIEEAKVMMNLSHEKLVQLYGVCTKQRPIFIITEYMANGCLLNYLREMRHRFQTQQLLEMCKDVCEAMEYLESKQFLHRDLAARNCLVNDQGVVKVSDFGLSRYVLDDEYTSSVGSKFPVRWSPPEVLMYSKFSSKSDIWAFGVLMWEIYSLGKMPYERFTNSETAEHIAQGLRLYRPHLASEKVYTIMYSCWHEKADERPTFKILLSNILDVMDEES
T1 sequence (P00533 25-1210): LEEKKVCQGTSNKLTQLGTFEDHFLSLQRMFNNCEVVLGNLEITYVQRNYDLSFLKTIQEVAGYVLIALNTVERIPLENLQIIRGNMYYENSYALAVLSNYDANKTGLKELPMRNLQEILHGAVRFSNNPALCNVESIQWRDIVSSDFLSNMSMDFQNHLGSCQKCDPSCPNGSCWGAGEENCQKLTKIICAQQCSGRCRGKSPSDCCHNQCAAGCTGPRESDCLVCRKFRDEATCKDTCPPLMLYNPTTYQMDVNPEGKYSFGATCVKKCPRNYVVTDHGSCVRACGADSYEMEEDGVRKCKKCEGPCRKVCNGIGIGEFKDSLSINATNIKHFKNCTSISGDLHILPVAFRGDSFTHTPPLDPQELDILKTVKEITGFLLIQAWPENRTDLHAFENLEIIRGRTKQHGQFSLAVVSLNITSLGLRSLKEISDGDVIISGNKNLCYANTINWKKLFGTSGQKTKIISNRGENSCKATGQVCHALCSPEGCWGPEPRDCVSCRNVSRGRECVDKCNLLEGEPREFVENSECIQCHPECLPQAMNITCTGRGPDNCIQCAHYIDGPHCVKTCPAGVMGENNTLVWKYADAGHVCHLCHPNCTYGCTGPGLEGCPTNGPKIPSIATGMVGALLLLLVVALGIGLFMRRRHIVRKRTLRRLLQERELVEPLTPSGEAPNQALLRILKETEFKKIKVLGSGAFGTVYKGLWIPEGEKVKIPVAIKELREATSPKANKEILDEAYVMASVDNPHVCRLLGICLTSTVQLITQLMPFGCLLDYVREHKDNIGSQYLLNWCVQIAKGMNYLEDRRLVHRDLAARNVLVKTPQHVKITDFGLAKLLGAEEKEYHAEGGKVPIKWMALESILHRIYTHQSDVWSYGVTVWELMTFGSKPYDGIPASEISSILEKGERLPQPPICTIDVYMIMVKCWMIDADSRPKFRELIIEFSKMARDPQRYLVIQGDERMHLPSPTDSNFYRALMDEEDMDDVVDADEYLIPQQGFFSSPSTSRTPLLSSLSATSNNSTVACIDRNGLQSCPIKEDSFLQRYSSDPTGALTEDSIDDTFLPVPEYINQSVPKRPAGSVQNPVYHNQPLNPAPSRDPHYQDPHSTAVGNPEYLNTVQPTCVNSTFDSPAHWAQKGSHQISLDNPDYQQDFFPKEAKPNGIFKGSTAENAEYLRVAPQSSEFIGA

Row | Structure (SMILES) | pEGFR inhibition (A549, 1 μM, 24 h) (EGFR [1]) | pEGFR inhibition (A549, compound concentration, 24 h) (EGFR [1]; compound concentration 10 μM) | EGFR degradation (A549, 1 μM, 24 h) (EGFR [2]) | EGFR degradation (A549, compound concentration, 24 h) (EGFR [2]; [3]) | % BTK degradation (RAMOS, 24 h) (BTK) | pEGFR inhibition (A549, compound concentration, 24 h) (EGFR [1]; compound concentration 5 μM) | EGFR degradation (A549, compound concentration, 24 h) (EGFR [2]; compound concentration 5, 24 h) | % BTK degradation (RAMOS, 10 uM, 24 h) (BTK)
1 | Nc1ncnc2c1c(-c1ccc(Oc3ccccc3)cc1)nn2CCNC(=O)c1c(F)c(F)c(F)c(F)c1S(N)(=O)=O [Compound I-42, N-(2-(4-amino-3-(4-phenoxyphenyl)-1H-pyrazolo[3,4-d]pyrimidin-1-yl)ethyl)-2,3,4,5-tetrafluoro-6-sulfamoylbenzamide] | X | X | Y | Y | Y |  |  | 
2 | COCCOc1ccc(Nc2ncc(F)c(Nc3cccc(NC(=O)c4c(F)c(F)c(F)c(F)c4S(=O)(=O)N(C)C)c3)n2)cc1 [Compound I-59, 2-(N,N-dimethylsulfamoyl)-3,4,5,6-tetrafluoro-N-(3-((5-fluoro-2-((4-(2-methoxyethoxy)phenyl)amino)pyrimidin-4-yl)amino)phenyl)benzamide] | X | X | Y |  | Y |  | Y | 
3 | CN(C)S(=O)(=O)c1c(F)c(F)c(F)c(F)c1C(=O)NCCCn1nc(-c2ccc(Oc3ccccc3)cc2)c2c(N)ncnc21 [Compound I-41, N-(3-(4-amino-3-(4-phenoxyphenyl)-1H-pyrazolo[3,4-d]pyrimidin-1-yl)propyl)-2-(N,N-dimethylsulfamoyl)-3,4,5,6-tetrafluorobenzamide] | X |  | Y |  | Y |  | Y | 
4 | COCCOc1ccc(Nc2ncc(F)c(Nc3cccc(NC(=O)c4c(F)c(F)c(F)c(F)c4[S@+](C)[O-])c3)n2)cc1 (stereo in doubt) [Compound I-62, 2,3,4,5-tetrafluoro-N-(3-((5-fluoro-2-((4-(2-methoxyethoxy)phenyl)amino)pyrimidin-4-yl)amino)phenyl)-6-(methylsulfinyl)benzamide] | X |  | Y | Y | Y |  |  | 
5 | C[S+]([O-])c1c(F)c(F)c(F)c(F)c1Nc1cc2c(Nc3ccc(F)c(Cl)c3)ncnc2cc1O[C@H]1CCOC1 (stereo partly drawn) [Compound I-4, N^4-(3-chloro-4-fluorophenyl)-N^6-(2,3,4,5-tetrafluoro-6-(methylsulfinyl)phenyl)-7-(((S)-tetrahydrofuran-3-yl)oxy)quinazoline-4,6-diamine] | X | X | Y | Y | Y |  |  | Y
6 | COCCOc1ccc(Nc2ncc(F)c(Nc3cccc(Nc4c(F)c(F)c(F)c(F)c4[S@+](C)[O-])c3)n2)cc1 (stereo in doubt) [Compound I-63, 5-fluoro-N^2-(4-(2-methoxyethoxy)phenyl)-N^4-(3-((2,3,4,5-tetrafluoro-6-(methylsulfinyl)phenyl)amino)phenyl)pyrimidine-2,4-diamine] | X | X | Y | Y | Y |  |  | Y
7 | COCCOc1ccc(Nc2ncc(F)c(Nc3cccc(NC(=O)c4c(F)c(F)c(F)c(F)c4S(C)(=O)=O)c3)n2)cc1 [Compound I-61, 2,3,4,5-tetrafluoro-N-(3-((5-fluoro-2-((4-(2-methoxyethoxy)phenyl)amino)pyrimidin-4-yl)amino)phenyl)-6-(methylsulfonyl)benzamide] | X |  | Y | Y |  |  |  | 

Second part, the compound after the results:

Row | pEGFR inhibition (A549, 1 μM, 24 h) (EGFR [1]) | pEGFR inhibition (A549, compound concentration, 24 h) (EGFR [1]; compound concentration 10 μM) | EGFR degradation (A549, 1 μM, 24 h) (EGFR [2]) | EGFR degradation (A549, compound concentration, 24 h) (EGFR [2]; [3]) | % BTK degradation (RAMOS, 24 h) (BTK) | pEGFR inhibition (A549, compound concentration, 24 h) (EGFR [1]; compound concentration 5 μM) | EGFR degradation (A549, compound concentration, 24 h) (EGFR [2]; compound concentration 5, 24 h) | % BTK degradation (RAMOS, 10 uM, 24 h) (BTK) | Structure (SMILES)
8 | X | X | Y | Y | Y |  |  |  | CS(=O)(=O)c1c(F)c(F)c(F)c(F)c1C(=O)Nc1cc2c(Nc3ccc(F)c(Cl)c3)ncnc2cc1O[C@H]1CCOC1 [Compound I-5, (S)—N-(4-((3-chloro-4-fluorophenyl)amino)-7-((tetrahydrofuran-3-yl)oxy)quinazolin-6-yl)-2,3,4,5-tetrafluoro-6-(methylsulfonyl)benzamide]
9 | X |  | Y |  | Y | X | Y |  | CS(=O)(=O)c1c(F)c(F)c(F)c(F)c1C(=O)NCCCn1nc(-c2ccc(Oc3ccccc3)cc2)c2c(N)ncnc21 [Compound I-39, N-(3-(4-amino-3-(4-phenoxyphenyl)-1H-pyrazolo[3,4-d]pyrimidin-1-yl)propyl)-2,3,4,5-tetrafluoro-6-(methylsulfonyl)benzamide]
10 | X |  | Y | Y | Y |  |  |  | COCCOc1ccc(Nc2ncc(F)c(Nc3cccc(Nc4c(F)c(F)c(F)c(F)c4S(C)(=O)=O)c3)n2)cc1 [Compound I-64, 5-fluoro-N^2-(4-(2-methoxyethoxy)phenyl)-N^4-(3-((2,3,4,5-tetrafluoro-6-(methylsulfonyl)phenyl)amino)phenyl)pyrimidine-2,4-diamine]
11 | X | X | Y |  | Y |  |  |  | CS(=O)(=O)c1c(F)c(F)c(F)c(F)c1CNCCNc1ncnc2[nH]ccc12 [Compound I-50, N^1-(7H-pyrrolo[2,3-d]pyrimidin-4-yl)-N2-(2,3,4,5-tetrafluoro-6-(methylsulfonyl)benzyl) ethane-1,2-diamine]
12 | X |  | Y | Y | Y |  |  |  | CN(C)S(=O)(=O)c1c(F)c(F)c(F)c(F)c1C(=O)NCCNc1ncnc2[nH]ccc12 [Compound I-47, N-(2-((7H-pyrrolo[2,3-d]pyrimidin-4-yl)amino)ethyl)-2-(N,N-dimethylsulfamoyl)-3,4,5,6-tetrafluorobenzamide]
13 | X | X | Y | Y | Y |  |  |  | CS(=O)(=O)c1c(F)c(F)c(F)c(F)c1Nc1cc2c(Nc3ccc(F)c(Cl)c3)ncnc2cc1O[C@H]1CCOC1 [Compound I-2, (S)—N^4-(3-chloro-4-fluorophenyl)-N^6-(2,3,4,5-tetrafluoro-6-(methylsulfonyl)phenyl)-7-((tetrahydrofuran-3-yl)oxy)quinazoline-4,6-diamine]
14 | X | X | Y | Y | Y |  |  |  | NS(=O)(=O)c1c(F)c(F)c(F)c(F)c1C(=O)NCCNc1ncnc2[nH]ccc12 [Compound I-48]
